# Reference: patent US20230233569A1 (Revolution Medicines, Inc., priority 2020, published 2023)
# Legend:
# NCI-H358 (K-Ras G12C) = assay: CellTiter-Glo cell viability assay, 5-day treatment; type: cell-based; details: Homo sapiens, NCI-H358, 120 h, 5-day treatment; read-out: H358 Cell Viability assay data (K-Ras G12C, IC50)
# Summary of the method: (§1)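 Luminescence read-out after 5 days of compound exposure, with plates first brought to room temperature for roughly 30 minutes. Values are percent of averaged DMSO wells, fitted by four-parameter logistic regression.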
# Capan-1 (K-Ras G12V) = assay: as above; type: cell-based; details: Homo sapiens, CAPAN-1, 120 h, 5-day treatment; read-out: Capan-1 Cell Viability assay data (K-Ras G12V, IC50)
# Summary of the method: as §1
# NRAS Q61K = NRAS Q61K (Homo sapiens, UniProt P01111+P62937, Q61K); assay: Disruption of BRAF RBD interaction with Ras (FRET / MOA assay, with Cyclophilin A); type: biochemical; details: NRAS Q61K; read-out: NRAS Q61K FRET data IC50
# Summary of the method: (§2)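 TR-FRET in 25 mM HEPES pH 7.3, 100 mM NaCl, 5 mM MgCl2, 0.1% BSA: 25 μM Cyclophilin A, 12.5 nM His6-Ras-GMPPNP, 50 nM GST-BRAF RBD with compound (10-point 3-fold series from 30 μM), 3 h at 25° C. Anti-His Eu/anti-GST APC added, 1.5 h more; IC50 from decreased FRET ratio versus DMSO.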
# KRAS Q61H = KRAS Q61H (Homo sapiens, UniProt P01116+P62937, Q61H); assay: as above; type: biochemical; details: KRAS Q61H; read-out: KRAS Q61H FRET data IC50
# Summary of the method: as §2
# NRAS Q61R = NRAS Q61R (Homo sapiens, UniProt P01111+P62937, Q61R); assay: as above; type: biochemical; details: NRAS Q61R; read-out: NRAS Q61R FRET data IC50
# Summary of the method: as §2
# NRAS WT = NRAS WT (Homo sapiens, UniProt P01111+P62937); assay: as above; type: biochemical; details: NRAS WT; read-out: NRAS WT FRET data IC50
# Summary of the method: as §2
# KRAS G13D = KRAS G13D (Homo sapiens, UniProt P01116+P62937, G13D); assay: as above; type: biochemical; details: KRAS G13D; read-out: KRAS G13D FRET data IC50
# Summary of the method: (§3)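 Here, compound titrations (ten points, factor 3, from 30 μM final) act on nucleotide-bound K-Ras and Cyclophilin A, and ternary complex formation disrupts the RAF RBD interaction.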
# KRAS WT = KRAS WT (Homo sapiens, UniProt P01116+P62937); assay: as above; type: biochemical; details: KRAS WT; read-out: KRAS WT FRET data IC50
# Summary of the method: as §3
# KRAS G12S = KRAS G12S (Homo sapiens, UniProt P01116+P62937, G12S); assay: as above; type: biochemical; details: read-out: KRAS G12S FRET data, IC50
# Summary of the method: as §3
# KRAS G12C = KRAS G12C (Homo sapiens, UniProt P01116+P62937, G12C); assay: as above; type: biochemical; details: read-out: KRAS G12C FRET data, IC50
# Summary of the method: as §3
# KRAS G12D = KRAS G12D (Homo sapiens, UniProt P01116+P62937, G12D); assay: as above; type: biochemical; details: read-out: KRAS G12D FRET data, IC50
# Summary of the method: as §3
# NRAS G12C = NRAS G12C (Homo sapiens, UniProt P01111+P62937, G12C); assay: as above; type: biochemical; details: NRAS G12C; read-out: NRAS G12C FRET data IC50
# KRAS G13C = KRAS G13C (Homo sapiens, UniProt P01116+P62937, G13C); assay: as above; type: biochemical; details: read-out: KRAS G13C FRET data, IC50
# Summary of the method: as §3
# KRAS G12V = KRAS G12V (Homo sapiens, UniProt P01116+P62937, G12V); assay: as above; type: biochemical; details: KRAS G12V; read-out: KRAS G12V FRET data IC50
# Summary of the method: as §3
# Chain of NRAS Q61R (P01111 whole entry Q61R): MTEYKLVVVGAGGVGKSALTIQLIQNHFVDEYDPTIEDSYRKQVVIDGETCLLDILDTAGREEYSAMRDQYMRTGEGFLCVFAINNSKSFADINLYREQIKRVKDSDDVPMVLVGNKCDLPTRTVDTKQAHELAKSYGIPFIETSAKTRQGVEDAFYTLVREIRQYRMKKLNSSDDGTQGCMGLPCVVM
# Chain of NRAS Q61R (P62937 whole entry): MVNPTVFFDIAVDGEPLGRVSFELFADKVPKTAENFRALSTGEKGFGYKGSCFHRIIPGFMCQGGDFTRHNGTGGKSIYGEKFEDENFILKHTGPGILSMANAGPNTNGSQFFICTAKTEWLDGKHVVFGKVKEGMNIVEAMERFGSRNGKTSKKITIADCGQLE
# Chain of KRAS WT (P01116 1-169 isoform P01116-2 limits assumed): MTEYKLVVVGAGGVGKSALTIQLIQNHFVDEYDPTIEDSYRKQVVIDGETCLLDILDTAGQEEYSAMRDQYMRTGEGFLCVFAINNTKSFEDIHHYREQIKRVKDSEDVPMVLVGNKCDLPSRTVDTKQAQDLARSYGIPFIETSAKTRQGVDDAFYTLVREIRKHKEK
# Chain of KRAS WT (P62937 whole entry): as the sequence (P62937 whole entry) above
# Chain of KRAS G13D (P01116 1-169 isoform P01116-2 G13D limits assumed): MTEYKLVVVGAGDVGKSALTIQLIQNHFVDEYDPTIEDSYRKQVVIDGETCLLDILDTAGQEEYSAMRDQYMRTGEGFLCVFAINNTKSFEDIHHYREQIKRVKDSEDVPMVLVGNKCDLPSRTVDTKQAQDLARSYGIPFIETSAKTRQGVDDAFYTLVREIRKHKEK
# Chain of KRAS G13D (P62937 whole entry): as the sequence (P62937 whole entry) above
# Chain of KRAS G12C (P01116 1-169 isoform P01116-2 G12C): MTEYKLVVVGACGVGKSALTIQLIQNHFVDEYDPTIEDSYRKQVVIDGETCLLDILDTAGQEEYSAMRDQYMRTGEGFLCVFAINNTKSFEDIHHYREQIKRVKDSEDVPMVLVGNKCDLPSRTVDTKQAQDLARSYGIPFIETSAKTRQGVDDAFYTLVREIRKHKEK
# Chain of KRAS G12C (P62937 whole entry): as the sequence (P62937 whole entry) above
# Chain of NRAS G12C (P01111 whole entry G12C): as the sequence (P01111 whole entry Q61R) above, with G12C, R61Q counted along it
# Chain of NRAS G12C (P62937 whole entry): as the sequence (P62937 whole entry) above
# Chain of KRAS Q61H (P01116 1-169 isoform P01116-2 Q61H limits assumed): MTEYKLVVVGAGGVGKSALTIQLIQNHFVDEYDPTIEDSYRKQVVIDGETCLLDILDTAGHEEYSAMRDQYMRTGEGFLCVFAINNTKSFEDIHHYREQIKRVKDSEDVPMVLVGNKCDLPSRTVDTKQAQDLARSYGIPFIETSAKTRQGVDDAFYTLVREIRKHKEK
# Chain of KRAS Q61H (P62937 whole entry): as the sequence (P62937 whole entry) above
# Chain of KRAS G13C (P01116 1-169 isoform P01116-2 G13C): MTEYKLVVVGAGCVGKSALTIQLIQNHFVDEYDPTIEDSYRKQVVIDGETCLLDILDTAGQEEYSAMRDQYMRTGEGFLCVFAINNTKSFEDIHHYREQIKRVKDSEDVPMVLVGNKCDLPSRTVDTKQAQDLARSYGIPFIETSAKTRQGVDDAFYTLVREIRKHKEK
# Chain of KRAS G13C (P62937 whole entry): as the sequence (P62937 whole entry) above
# Chain of KRAS G12D (P01116 1-169 isoform P01116-2 G12D limits assumed): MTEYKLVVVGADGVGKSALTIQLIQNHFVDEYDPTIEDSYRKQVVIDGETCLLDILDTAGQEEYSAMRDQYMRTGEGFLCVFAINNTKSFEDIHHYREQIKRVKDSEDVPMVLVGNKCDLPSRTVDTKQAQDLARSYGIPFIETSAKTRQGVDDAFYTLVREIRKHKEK
# Chain of KRAS G12D (P62937 whole entry): as the sequence (P62937 whole entry) above
# Chain of NRAS Q61K (P01111 whole entry Q61K): as the sequence (P01111 whole entry Q61R) above, with R61K counted along it
# Chain of NRAS Q61K (P62937 whole entry): as the sequence (P62937 whole entry) above
# Chain of KRAS G12V (P01116 1-169 isoform P01116-2 G12V limits assumed): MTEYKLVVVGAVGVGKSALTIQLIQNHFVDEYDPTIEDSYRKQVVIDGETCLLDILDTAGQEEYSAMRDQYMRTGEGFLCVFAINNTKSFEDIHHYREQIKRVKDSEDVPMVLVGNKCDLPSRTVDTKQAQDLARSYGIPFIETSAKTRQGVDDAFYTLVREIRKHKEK
# Chain of KRAS G12V (P62937 whole entry): as the sequence (P62937 whole entry) above
# Chain of NRAS WT (P01111 whole entry): as the sequence (P01111 whole entry Q61R) above, with R61Q counted along it
# Chain of NRAS WT (P62937 whole entry): as the sequence (P62937 whole entry) above
# Chain of KRAS G12S (P01116 1-169 isoform P01116-2 G12S limits assumed): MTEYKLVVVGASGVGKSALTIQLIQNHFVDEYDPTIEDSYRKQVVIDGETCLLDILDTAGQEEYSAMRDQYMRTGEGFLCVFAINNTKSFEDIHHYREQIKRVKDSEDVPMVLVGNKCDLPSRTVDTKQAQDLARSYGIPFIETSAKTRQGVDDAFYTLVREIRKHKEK
# Chain of KRAS G12S (P62937 whole entry): as the sequence (P62937 whole entry) above
IC50 (NCI-H358 (K-Ras G12C)) [nM],IC50 (NRAS Q61K) [nM],IC50 (KRAS Q61H) [nM],IC50 (NRAS Q61R) [nM],IC50 (NRAS WT) [nM],IC50 (KRAS G13D) [nM],IC50 (KRAS WT) [nM],IC50 (KRAS G12S) [nM],IC50 (KRAS G12C) [nM],IC50 (KRAS G12D) [nM],IC50 (NRAS G12C) [nM],IC50 (KRAS G13C) [nM],IC50 (KRAS G12V) [nM],SMILES,IC50 (Capan-1 (K-Ras G12V)) [nM]
< 10,10 to 100,10 to 100,100 to 1000,10 to 100,100 to 1000,10 to 100,100 to 1000,10 to 100,100 to 1000,10 to 100,100 to 1000,100 to 1000,"CCn1c(-c2cccnc2[C@H](C)OC)c2c3cc(ccc31)-c1csc(n1)C[C@H](NC(=O)[C@H](C(C)C)N(C)C(=O)N1CCN(C(=O)C3(N(C)C)CC3)CC1)C(=O)N1CCC[C@H](N1)C(=O)OCC(C)(C)C2 (atropisomer, axis not shown) [Example A443]",10 to 100
10 to 100,10 to 100,100 to 1000,100 to 1000,100 to 1000,1000 to 10000,100 to 1000,100 to 1000,100 to 1000,1000 to 10000,100 to 1000,100 to 1000,100 to 1000,"CCn1c(-c2cccnc2[C@H](C)OC)c2c3cc(ccc31)-c1csc(n1)C[C@H](NC(=O)[C@H](C(C)C)N(C)C(=O)N1C[C@H]3OCCN(C)[C@H]3C1)C(=O)N1CCC[C@H](N1)C(=O)OCC(C)(C)C2 (atropisomer, axis not shown) [Example A451]",10 to 100
10 to 100,10 to 100,100 to 1000,100 to 1000,100 to 1000,100 to 1000,100 to 1000,100 to 1000,10 to 100,100 to 1000,10 to 100,100 to 1000,100 to 1000,"CCn1c(-c2cccnc2[C@H](C)OC)c2c3cc(ccc31)-c1csc(n1)C[C@H](NC(=O)[C@H](C(C)C)N(C)C(=O)N1CC([C@@H](C)N(C)C)C1)C(=O)N1CCC[C@H](N1)C(=O)OCC(C)(C)C2 (atropisomer, axis not shown) [Example A458]",10 to 100
10 to 100,10 to 100,10 to 100,100 to 1000,100 to 1000,100 to 1000,100 to 1000,100 to 1000,10 to 100,100 to 1000,10 to 100,100 to 1000,100 to 1000,"CCn1c(-c2cccnc2[C@H](C)OC)c2c3cc(ccc31)-c1csc(n1)C[C@H](NC(=O)[C@H](C(C)C)N(C)C(=O)N1CC3(CC(N(C)CCO)C3)C1)C(=O)N1CCC[C@H](N1)C(=O)OCC(C)(C)C2 (atropisomer, axis not shown) [Example A467]",10 to 100
100 to 1000,10 to 100,10 to 100,100 to 1000,10 to 100,100 to 1000,100 to 1000,100 to 1000,10 to 100,100 to 1000,10 to 100,100 to 1000,100 to 1000,"CCn1c(-c2cccnc2[C@H](C)OC)c2c3cc(ccc31)-c1csc(n1)C[C@H](NC(=O)[C@H](C(C)C)N(C)C(=O)N1CC[C@H]3CN(C)C[C@H]31)C(=O)N1CCC[C@H](N1)C(=O)OCC(C)(C)C2 (atropisomer, axis not shown) [Example A471]",100 to 1000
< 10,100 to 1000,100 to 1000,100 to 1000,100 to 1000,100 to 1000,100 to 1000,100 to 1000,100 to 1000,100 to 1000,10 to 100,100 to 1000,100 to 1000,"CCn1c(-c2cc(N3CCN(C)CC3)cnc2[C@H](C)OC)c2c3cc(ccc31)-c1csc(n1)C[C@H](NC(=O)[C@H](C(C)C)N(C)C(=O)N1C[C@@H](C)N(C)C[C@H]1C)C(=O)N1CCC[C@H](N1)C(=O)OCC(C)(C)C2 (atropisomer, axis not shown) [Example A476]",< 10
< 10,10 to 100,10 to 100,10 to 100,10 to 100,100 to 1000,100 to 1000,100 to 1000,10 to 100,100 to 1000,10 to 100,100 to 1000,10 to 100,"CCn1c(-c2cc(N3CCN(C)CC3)cnc2[C@H](C)OC)c2c3cc(ccc31)-c1csc(n1)C[C@H](NC(=O)[C@H](C(C)C)N(C)C(=O)N1CC(N(C)C)C1)C(=O)N1CCC[C@H](N1)C(=O)OCC(C)(C)C2 (atropisomer, axis not shown) [Example A477]",< 10
< 10,10 to 100,10 to 100,100 to 1000,10 to 100,100 to 1000,100 to 1000,100 to 1000,10 to 100,100 to 1000,10 to 100,100 to 1000,100 to 1000,"CCn1c(-c2cccnc2[C@H](C)OC)c2c3cc(ccc31)-c1csc(n1)C[C@H](NC(=O)[C@H](C(C)C)N(C)C(=O)N1CC([C@H](C)CO)C1)C(=O)N1CCC[C@H](N1)C(=O)OCC(C)(C)C2 (atropisomer, axis not shown) [Example A478]",10 to 100
< 10,10 to 100,10 to 100,10 to 100,10 to 100,100 to 1000,10 to 100,10 to 100,10 to 100,10 to 100,10 to 100,100 to 1000,100 to 1000,"CCn1c(-c2cc(N3CCN(C)CC3)cnc2[C@H](C)OC)c2c3cc(ccc31)-c1csc(n1)C[C@H](NC(=O)[C@H](C(C)C)N(C)C(=O)N1CCC13CCN(C)CC3)C(=O)N1CCC[C@H](N1)C(=O)OCC(C)(C)C2 (atropisomer, axis not shown) [Example A483]",10 to 100
10 to 100,10 to 100,100 to 1000,100 to 1000,100 to 1000,100 to 1000,100 to 1000,100 to 1000,100 to 1000,1000 to 10000,100 to 1000,100 to 1000,100 to 1000,"CCn1c(-c2cccnc2[C@H](C)OC)c2c3cc(ccc31)-c1csc(n1)C[C@H](NC(=O)[C@H](C(C)C)N(C)C(=O)N1CC3(CC(N4CCOCC4)C3)C1)C(=O)N1CCC[C@H](N1)C(=O)OCC(C)(C)C2 (atropisomer, axis not shown) [Example A486]",10 to 100

SMILES,IC50 (NCI-H358 (K-Ras G12C)) [nM],IC50 (NRAS Q61K) [nM],IC50 (KRAS Q61H) [nM],IC50 (NRAS Q61R) [nM],IC50 (NRAS WT) [nM],IC50 (KRAS G13D) [nM],IC50 (KRAS WT) [nM],IC50 (KRAS G12S) [nM],IC50 (KRAS G12C) [nM],IC50 (KRAS G12D) [nM],IC50 (NRAS G12C) [nM],IC50 (KRAS G13C) [nM],IC50 (KRAS G12V) [nM],IC50 (Capan-1 (K-Ras G12V)) [nM]
"CCn1c(-c2cc(C3CCN(C)CC3)cnc2[C@H](C)OC)c2c3cc(ccc31)-c1csc(n1)C[C@H](NC(=O)[C@H](C(C)C)N(C)C(=O)N(C)C)C(=O)N1CCC[C@H](N1)C(=O)OCC(C)(C)C2 (atropisomer, axis not shown) [Example A484]",< 10,10 to 100,10 to 100,100 to 1000,10 to 100,100 to 1000,100 to 1000,100 to 1000,10 to 100,100 to 1000,10 to 100,100 to 1000,100 to 1000,< 10
